Structures can show the parent of a compound that is named as a salt.
system: A2780 cells; experiment: In vitro cell proliferation assay (WST-1 assay); assay type: cell-based; conditions: Homo sapiens, total incubation time 72 h, WST-1 reagent
Description: In Vitro Cell Proliferation Assay (WST-1 Assay)
A2780 cells were seeded in 96-well plates at 3×10^3 cells/well in 100 μL of culture medium, 8 wells were left empty for media only controls.
After 24 h the compound titrations were performed, in a separate dilution plate, by serially diluting the compounds of general formula (I) in culture medium. A 100 μL of each dilution was added to the plated cells, this was done in triplicate, and controls (e.g. DMSO and blanks) were included. The plates were incubated for 24 h at 37° C. in a CO2 incubator. The compound titrations were repeated in a separate dilution plate after 24 h. The media plus compound from the assay plates were then aspirated. A 100 μL of media was then added to all wells, followed by 100 μL of each compound dilution. The plates were incubated for a further 48 h at 37° C. in a CO2 incubator (total incubation time 72 h). The number of viable cells was then assessed using Cell Proliferation Reagent WST-1. 10 μL of WST-1 reagent added to each well and incubated for one to four hours at 37° C. in CO2 incubator. The absorbance was measured (450 nm/690 nm).
The activity of compounds of general formula (I) in reducing the number of viable cells was calculated as: % activity=[(S^c−B)/(S^o−B)]×100
S^c denotes signal measured in the presence of test compound, S^o denotes signal detected in the absence of compound, and B denotes background signal, measured in blank wells containing medium only. Analyse data using GraphPad Prism.
Results can be seen in Table 1, wherein IC50 is the concentration giving 50% activity.

Row | SMILES | IC50 [nM]
1 | O=C(CCCCCCNc1c(Nc2ccncc2)c(=O)c1=O)N(Cc1ccccc1)OCCN1CCOCC1 [Compound 1016, N-benzyl-7-(3,4-dioxo-2-(pyridin-4-ylamino)cyclobut-1-enylamino)-N-(2-morpholinoethoxy)heptanamide] | 0.56
2 | CN(OCCC1CCCCC1)S(=O)(=O)CCCCCCNc1c(Nc2ccncc2)c(=O)c1=O [Compound 1011, N-(2-cyclohexylethoxy)-6-(3,4-dioxo-2-(pyridin-4-ylamino)cyclobut-1-enylamino)-N-methylhexane-1-sulfonamide] | 0.085
3 | O=c1c(NCCCCCCS(=O)(=O)N(CCCN2CCOCC2)CCN2CCOCC2)c(Nc2ccncc2)c1=O [Compound 1019, 6-(3,4-dioxo-2-(pyridin-4-ylamino)cyclobut-1-enylamino)-N-(2-morpholinoethyl)-N-(3-morpholinopropyl)hexane-1-sulfonamide] | 26
4 | O=c1c(NCCCCCCS(=O)(=O)N(CCN2CCOCC2)OCCC2CCCCC2)c(Nc2ccncc2)c1=O [Compound 1009, N-(2-cyclohexylethoxy)-6-(3,4-dioxo-2-(pyridin-4-ylamino)cyclobut-1-enylamino)-N-(2-morpholinoethyl)hexane-1-sulfonamide] | 0.43
5 | O=C(CCCCCCCNc1c(Nc2ccncc2)c(=O)c1=O)N(Cc1ccccc1)OCCN1CCOCC1 [Compound 1018, N-benzyl-8-(3,4-dioxo-2-(pyridin-4-ylamino)cyclobut-1-enylamino)-N-(2-morpholinoethoxy)octanamide] | 0.26
6 | O=C(NCCCCCNc1c(Nc2ccncc2)c(=O)c1=O)N(OCCN1CCOCC1)C1CCCCC1 [Compound 1039, 1-cyclohexyl-3-(5-(3,4-dioxo-2-(pyridin-4-ylamino)cyclobut-1-enylamino)pentyl)-1-(2-morphinethoxy)urea] | 4.49
7 | O=c1c(NCCCCCCS(=O)(=O)N(CCN2CCOCC2)C2CCCCCC2)c(Nc2ccncc2)c1=O [Compound 1021, N-cycloheptyl-6-(3,4-dioxo-2-(pyridin-4-ylamino)cyclobut-1-enylamino)-N-(2-morpholinoethyl)hexane-1-sulfonamide] | 0.25
8 | O=C(OCCCCCNc1c(Nc2ccncc2)c(=O)c1=O)N(OCCN1CCOCC1)C1CCCCC1 [Compound 1026, 5-(3,4-dioxo-2-(pyridin-4-ylamino)cyclobut-1-enylamino)pentyl cyclohexyl(2-morpholinoethoxy)carbamate] | 0.6
9 | CN(C1CCCCCC1)S(=O)(=O)CCCCCCNc1c(Nc2ccncc2)c(=O)c1=O [Compound 1027, N-cycloheptyl-6-(3,4-dioxo-2-(pyridin-4-ylamino)cyclobut-1-enylamino)-N-methylhexane-1-sulfonamide] | 0.08
10 | O=c1c(NCCCCCCS(=O)(=O)N2CCOCC2)c(Nc2ccncc2)c1=O [Compound 1031, 3-(6-(morpholinosulfonyl)hexylamino)-4-(pyridin-4-ylamino)cyclobut-3-ene-1,2-dione] | 41.3
11 | O=C(CCCCCCNc1c(Nc2cccnc2)c(=O)c1=O)N(OCCN1CCOCC1)C1CCCCC1 [Compound 1033, N-cyclohexyl-7-(3,4-dioxo-2-(pyridin-3-ylamino)cyclobut-1-enylamino)-N-(morpholinoethoxy)heptanamide] | 0.6
12 | O=C(CCCCCCNc1c(Nc2ccncc2)c(=O)c1=O)N(OCCN1CCOCC1)C1CCCCC1 [Compound 1007, N-cyclohexyl-7-(3,4-dioxo-2-(pyridin-4-ylamino)cyclobut-1-enylamino)-N-(2-morpholinoethoxy)heptanamide] | 0.03
13 | O=c1c(NCCCCCCS(=O)(=O)N(Cc2ccccc2)OCCC2CCCCC2)c(Nc2ccncc2)c1=O [Compound 1010, N-benzyl-N-(2-cyclohexylethoxy)-6-(3,4-dioxo-2-(pyridin-4-ylamino)cyclobut-1-enylamino)hexane-1-sulfonamide] | 0.93
14 | COCCOCCOCCN(OCCC1CCCCC1)S(=O)(=O)CCCCCCNc1c(Nc2ccncc2)c(=O)c1=O [Compound 1008, N-(2-cyclohexylethoxy)-6-(3,4-dioxo-2-(pyridin-4-ylamino)cyclobut-1-enylamino)-N-(2-(2-(2-methoxyethoxy)ethoxy)ethyl)hexane-1-sulfonamide] | 0.48
15 | O=c1c(NCCCCCCS(=O)(=O)N2CCCCCC2)c(Nc2ccncc2)c1=O [Compound 1030, 3-(6-(azepan-1-ylsulfonyl)hexylamino)-4-(pyridin-4-ylamino)cyclobut-3-ene-1,2-dione] | 0.53
16 | CCOP(=O)(CCCCCCNc1c(Nc2ccncc2)c(=O)c1=O)NC1CCCCC1 (centres unmarked) [Compound 1068, Ethyl N-cyclohexyl-P-(6-(3,4-dioxo-2-(pyridin-4-ylamino)cyclobut-1-enylamino)hexyl)phosphonimidate] | 0.18

Further lines, results first:

Row | IC50 [nM] | SMILES
17 | 0.45 | O=c1c(NCCCCCCS(=O)(=O)N(OCCN2CCOCC2)C2CCCCC2)c(Nc2ccncc2)c1=O [Compound 1051, N-Cyclohexyl-6-(3,4-dioxo-2-(pyridin-4-ylamino)cyclobut-1-enylamino)-N-(2-morpholinoethoxy)hexane-1-sulfonamide oxalate]
18 | 1.13 | O=c1c(NCCCCCCS(=O)(=O)N(CCN2CCOCC2)C2CCCCC2)c(Nc2ccncc2)c1=O [Compound 1067, N-cyclohexyl-6-(3,4-dioxo-2-(pyridin-4-ylamino)cyclobut-1-enylamino)-N-(2-morpholinoethyl)hexane-1-sulfonamide]
19 | 0.5 | O=c1c(NCCCCCS(=O)(=O)N(OCCN2CCOCC2)C2CCCCC2)c(Nc2ccncc2)c1=O [Compound 1053, N-Cyclohexyl-5-(3,4-dioxo-2-(pyridin-4-ylamino)cyclobut-1-enylamino)-N-(2-morpholinoethoxy)pentane-1-sulfonamide]
20 | 0.066 | O=c1c(NCCCCCCS(=O)(=O)N(CCN2CCOCC2)OCc2ccccc2)c(Nc2ccncc2)c1=O [Compound 1077, N-(benzyloxy)-6-(3,4-dioxo-2-(pyridin-4-ylamino)cyclobut-1-enylamino)-N-(2-morpholinoethyl)hexane-1-sulfonamide]
21 | 0.42 | O=c1c(NCCCCCS(=O)(=O)N(OCCN2CCOCC2)C2CCCC2)c(Nc2ccncc2)c1=O [Compound 1078, N-cyclopentyl-6-(3,4-dioxo-2-(pyridin-4-ylamino)cyclobut-1-enylamino)-N-(2-morpholinoethoxy)pentane-1-sulfonamide]
22 | 0.69 | O=c1c(NCCCCCCS(=O)(=O)N(OCCN2CCOCC2)C2CCCCCC2)c(Nc2ccncc2)c1=O [Compound 1060, N-cycloheptyl-6-(3,4-dioxo-2-(pyridin-4-ylamino)cyclobut-1-enylamino)-N-(2-morpholinoethoxy)hexane-1-sulfonamide]
23 | 0.12 | CC(C)N(OCCN1CCOCC1)S(=O)(=O)CCCCCCNc1c(Nc2ccncc2)c(=O)c1=O [Compound 1047, 6-(3,4-dioxo-2-(pyridin-4-ylamino)cyclobut-1-enylamino)-N-isopropyl-N-(2-morpholinoethoxy)hexane-1-sulfonamide]
24 | 0.66 | O=c1c(NCCCCCCS(=O)(=O)N(CCN2CCOCC2)c2ccc(Cl)cc2)c(Nc2ccncc2)c1=O [Compound 1080, N-(4-chlorophenyl)-6-(3,4-dioxo-2-(pyridin-4-ylamino)cyclobut-1-enylamino)-N-(2-morpholinoethyl)hexane-1-sulfonamide]
25 | 0.75 | O=c1c(NCCCCCCS(=O)(=O)N(OCCN2CCOCC2)C2CCCC2)c(Nc2ccncc2)c1=O [Compound 1058, N-cyclopentyl-6-(3,4-dioxo-2-(pyridin-4-ylamino)cyclobut-1-enylamino)-N-(2-morpholinoethoxy)hexane-1-sulfonamide]
26 | 0.42 | O=c1c(NCCCCCCS(=O)(=O)N(CCCN2CCOCC2)C2CCC2)c(Nc2ccncc2)c1=O [Compound 1062, N-cyclobutyl-6-(3,4-dioxo-2-(pyridin-4-ylamino)cyclobut-1-enylamino)-N-(3-morpholinopropyl)hexane-1-sulfonamide]
27 | 0.3 | O=c1c(NCCCCCCCS(=O)(=O)N(OCCN2CCOCC2)C2CCCCC2)c(Nc2ccncc2)c1=O [Compound 1052, N-Cyclohexyl-7-(3,4-dioxo-2-(pyridin-4-ylamino)cyclobut-1-enylamino)-N-(2-morpholinoethoxy)heptane-1-sulfonamide]
28 | 1.19 | O=c1c(NCCCCCCS(=O)(=O)N(CCCN2CCOCC2)C2CCCCC2)c(Nc2ccncc2)c1=O [Compound 1050, N-Cyclohexyl-6-(3,4-dioxo-2-(pyridin-4-ylamino)cyclobut-1-enylamino)-N-(3-morpholinopropyl)hexane-1-sulfonamide]
29 | 0.25 | CN(OCc1ccccc1)S(=O)(=O)CCCCCCNc1c(Nc2ccncc2)c(=O)c1=O [Compound 1076, N-(benzyloxy)-6-(3,4-dioxo-2-(pyridin-4-ylamino)cyclobut-1-enylamino)-N-methylhexane-1-sulfonamide]

— patent US9006426B2, “Squaric acid derivatives as inhibitors of the nicotinamide” (Topotarget A/S, priority 2008, dated 2015)
